Data reported in the Deep4Chem optical property database.
Several values for one entry are separate records, joined by “and”; a condition that tells them apart may be missing. Equal entries are not always repeated. One block for each molecule: values may come before it.

Test: solvent given as SMILES

emission maximum (in C1CCCCC1): 704 nm
emission maximum (in CCOC(C)=O): 710 nm
Compound: CC1=[N+]2C(=C(/C=C/c3ccc(C(F)(F)F)cc3)c3ccc(C)n3[B-]2(F)F)C=C1c1cc2n(c1)[B-](F)(F)[N+]1=CC=CC1=C2c1c(C)cc(C)cc1C

emission maximum (in CN(C)C=O): 414 nm
Compound: Fc1cc(-c2ccc(-c3nc4ccccc4[nH]3)cc2)ccc1-c1ccc(-c2nc3ccccc3[nH]2)cc1

emission maximum (in ClC(Cl)Cl): 519.7 nm
Compound: CC1=CC(C)=[N+]2C1=C(c1ccc(I)cc1)c1c(C)cc(C)n1[B-]2(Oc1ccc(Cl)cc1)Oc1ccc(Cl)cc1

emission maximum (in CC#N): 643 nm
emission maximum (in CO): 641 nm
emission maximum (in ClCCl): 637 nm
emission maximum (in O): 644 nm
Compound: CCOC(=O)CC[N+]1=c2cc3c(cc2CCC1)=Cc1c(c2ccc(N(C)C)cc2oc1=O)O3

emission maximum (in ClCCl): 554 nm
Compound: CC1=C(c2ccccc2)Oc2cc3nc4ccccc4nc3c3cccc1c23

emission maximum (in CC#N): 520 nm
Compound: Cc1ccc(-c2nc3c([nH]2)C2=CC(=O)S[C@]2(C)[C@@]2(C)SC(=O)C=C32)cc1

emission maximum (in CC#N): 606 nm
Compound: CC1=[N+]2C(=C(c3ccccc3)c3c4ccccc4c(C)n3[B-]2(F)F)c2ccccc21

emission maximum (in c1cc(-c2cccc(-n3c4ccccc4c4ccccc43)c2)cc(-n2c3ccccc3c3ccccc32)c1): 475 nm
Compound: N#Cc1c(-n2c3ccccc3c3ccccc32)nc(-n2c3ccccc3c3ccccc32)c(C#N)c1-c1ccccc1

emission maximum (in ClC(Cl)Cl): 615 nm
Compound: CCn1c2ccccc2sc2c(C#N)c3[nH]c4ccccc4sc3c(C#N)c21

emission maximum (in C1CCOC1): 409 nm
Compound: F[Si](c1ccccc1)(c1c2ccccc2cc2ccccc12)c1c2ccccc2cc2ccccc12

emission maximum (in ClC(Cl)Cl): 392 nm
Compound: CC(C)(C)NC(=O)c1cc2ccc3cccc4ccc(c1C(=O)NC(C)(C)C)c2c34

emission maximum (in ClC(Cl)Cl): 744 nm
Compound: Cc1ccc(/C2=c3\cc/c(o3)=C(\c3ccc(C)cc3)c3ccc([nH]3)-c3ccc4n3[P-](=O)(=O)[N+]3=C(C=CC3=C4c3ccco3)c3ccc2[nH]3)cc1

emission maximum (in ClC(Cl)Cl): 382 nm
Compound: CC(C)(C)NC(=O)c1ccc2ccc3cccc4ccc1c2c34

emission maximum (in O): 520 nm
Compound: CC[n+]1c(-c2ccccc2)c2cc(NC(N)=O)ccc2c2ccc(NC(N)=O)cc21

emission maximum (in CC#N): 500.89 nm
emission maximum (in CCO): 471.6 nm
emission maximum (in ClCCl): 470 nm
Compound: CN(C)c1cc(-c2ccc(C#Cc3ccccc3)cc2)cc2ccccc12

emission maximum (in C1CCOC1): 748 nm
emission maximum (in CS(C)=O): 771 nm
emission maximum (in ClCCl): 735 nm
Compound: COc1cc(OC)cc(C2=C3C(C)=C(I)C(/C=C/c4c[nH]c5ccccc45)=[N+]3[B-](F)(F)n3c(/C=C/c4c[nH]c5ccccc45)c(I)c(C)c32)c1

emission maximum (in CCO): 432 nm
Compound: CC(C)(C)Nc1cc2sc3cc(NC(C)(C)C)c(F)cc3c(=O)c2cc1F

emission maximum (in C1CCCCC1): 400 nm and 407.66 nm
emission maximum (in C1CCOC1): 397 nm
emission maximum (in CO): 400 nm
Compound: c1ccc2cc3ccccc3cc2c1

emission maximum (in C1CCCCC1): 410 nm
emission maximum (in CC#N): 411 nm
Compound: C[Si](C)(C)[Si](C)(C)c1cccc2cc3ccccc3cc12

emission maximum (in CCCCCC): 563 nm
Compound: CC(C)[Si](C#Cc1c2nc3c(nc2c(C#C[Si](C(C)C)(C(C)C)C(C)C)c2nc4ccccc4nc12)C1c2ccccc2C3c2ccccc21)(C(C)C)C(C)C

emission maximum (in C1CCCCC1): 374.66 nm
emission maximum (in C1CCOC1): 378.18 nm
emission maximum (in CC#N): 375.98 nm
emission maximum (in CCCCCC): 374.51 nm
emission maximum (in CCO): 375.24 nm
emission maximum (in CN(C)C=O): 380.68 nm
emission maximum (in CO): 375.1 nm
emission maximum (in ClC(Cl)Cl): 379.68 nm
emission maximum (in ClCCl): 378.91 nm
Compound: Fc1ccc(-c2cc3c4c(c2)CCc2cc(-c5ccc(F)cc5)cc(c2-4)CC3)cc1

emission maximum (in CCCCCC): 622 nm
Compound: F[B-]1(F)n2c(ccc2-c2ccccc2)C(C(F)(F)F)=C2C=CC(c3ccccc3)=[N+]21

emission maximum (in ClCCl): 557 nm
Compound: CC[C@H](C)COc1ccc(C2=C3C(C)=C(I)C(C)=[N+]3[B-](F)(F)n3c(C)c(I)c(C)c32)cc1

emission maximum (in c1ccccc1): 407 nm
Compound: CCOC(=O)CSc1nc(C)c(CC)c(C#N)c1C#N

emission maximum (in CCO): 530 nm
emission maximum (in ClCCl): 502 nm
Compound: CCN(CC)c1ccc2cc(C#N)/c(=N\C(=O)c3ccc(C)cc3)oc2c1

emission maximum (in ClCCl): 420 nm
Compound: F[B-]1(F)OC(C#Cc2ccccc2)=CC(c2ccccc2)=[O+]1

emission maximum (in C1CCOC1): 568 nm
emission maximum (in CC#N): 592 nm
emission maximum (in CCCCCC): 496 nm
Compound: CC1=N/C(=C\c2ccc(C#N)c(N(C)C)c2)C(=O)N1C

emission maximum (in CC#N): 567 nm
emission maximum (in CCCCCC): 568 nm
emission maximum (in CCOC(C)=O): 567 nm
emission maximum (in CO): 563 nm
emission maximum (in ClCCl): 569 nm
Compound: CCCSc1ccc2n1[B-](F)(F)[N+]1=C(SC#N)C=CC1=C2c1ccccc1

emission maximum (in ClCCl): 642 nm
Compound: CN(C)c1ccc(C2=Nc3ccc4c(C(F)(F)F)cc(C(F)(F)F)nc4[n+]3[B-](F)(F)O2)cc1

The remaining lines, values behind:

Compound: CN(C)c1ccc(C2=CC3=C(c4ccc(C=O)cc4)[C@H]4c5ccccc5[C@]3(S2)c2ccccc24)cc1
emission maximum (in ClCCl): 616 nm

Compound: CCOC(=O)CN1C(=O)C2=C(c3ccccc3)N(CC(=O)OCC)C(=O)C2=C1c1ccccc1
emission maximum (in CC#N): 512 nm
emission maximum (in CS(C)=O): 519 nm
emission maximum (in Cc1ccccc1): 520 nm

Compound: N#Cc1cc(N2c3ccccc3Sc3ccccc32)c(N2c3ccccc3Sc3ccccc32)cc1C#N
emission maximum (in c1ccc2c(c1)c1ccccc1n2-c1ccc(-c2ccc(-n3c4ccccc4c4ccccc43)cc2)cc1): 605 nm

Compound: Cc1cc(C)c(B(c2c(C)cc(C)cc2C)N2c3ccccc3C(c3ccccc3)(c3ccccc3)c3ccccc32)c(C)c1
emission maximum (in C1CCCCC1): 522 nm
emission maximum (in Cc1ccccc1): 537 nm
emission maximum (in ClCCl): 558 nm

Compound: Cc1ccc(-c2c3nc(c(-c4ccc(C)cc4)c4ccc([nH]4)c(-c4ccc(OC(=O)C(C)c5cccc(C(=O)c6ccccc6)c5)cc4)c4nc(c(-c5ccc(C)cc5)c5ccc2[nH]5)C=C4)C=C3)cc1 (configuration not stated)
emission maximum (in ClCCl): 652 nm

Compound: Cc1nc2ccc(/C=C/c3ccc(N(C)C)cc3)cc2nc1-c1ccccc1
emission maximum (in C1COCCO1): 526 nm
emission maximum (in CC#N): 641 nm
emission maximum (in ClCCl): 590 nm

Compound: C[Si]1(C)O[Si](C)(C)c2cc3c(-c4ccccc4F)c4cc(Cl)ccc4nc3cc21
emission maximum (in ClCCl): 498 nm

Compound: O=C1CC(=O)Nc2cc(Cl)ccc2N1
emission maximum (in CS(C)=O): 336 nm

Compound: CC(C)(C)NC(=O)c1ccc(-c2ccc(N3c4ccccc4Oc4ccccc43)cc2)c2ccc3c4ccc(F)cc4c4cc(F)ccc4c3c12
emission maximum (in ClCCl): 573 nm

Compound: N#Cc1ccc(/C=C2\N=C(c3ccccc3)OC2=O)cc1
emission maximum (in C1COCCO1): 426 nm

Compound: c1ccc2c(-c3cc(-c4nccs4)nc(-c4nccs4)c3)cccc2c1
emission maximum (in CC#N): 386 nm
emission maximum (in CCCCCC): 359 nm
emission maximum (in CO): 422 nm
emission maximum (in ClC(Cl)Cl): 377 nm

Compound: CCCCN1C(=S)c2cccc3cccc(c23)C1=S
emission maximum (in Cc1ccccc1): 506 nm

Compound: Cc1c(C(=O)c2ccc(C(F)(F)F)cc2)c2ccc3cccc4c5cccc6ccc1c(c65)c2c34
emission maximum (in ClCCl): 545 nm

Compound: CC[N+]1(CC)CN2C(=N1)C(C(=O)O)=Cc1cc(C)ccc12
emission maximum (in O): 469 nm

Compound: CCCCCCCCC1(CCCCCCCC)c2cc(C#CC#Cc3ccc(N(c4ccccc4)c4ccccc4)cc3)ccc2-c2ccc(C=O)cc21
emission maximum (in C1CCOC1): 498 nm
emission maximum (in C1COCCO1): 448 nm
emission maximum (in CC#N): 525 nm
emission maximum (in CC(C)=O): 541 nm
emission maximum (in CCCCCC): 422 nm
emission maximum (in CCOC(C)=O): 500 nm
emission maximum (in CN(C)C=O): 523 nm
emission maximum (in CS(C)=O): 540 nm
emission maximum (in Cc1ccccc1): 442 nm
emission maximum (in ClC(Cl)Cl): 500 nm
emission maximum (in ClCCl): 520 nm

Compound: O=C1c2ccccc2-c2ccc(N3CCN(c4ccccc4)CC3)c3cccc1c23
emission maximum (in C1CCCCC1): 529 nm
emission maximum (in C1CCOC1): 583 nm
emission maximum (in C1COCCO1): 578 nm
emission maximum (in CC1COC(=O)O1): 614 nm
emission maximum (in CC#N): 603 nm
emission maximum (in CC(C)=O): 601 nm
emission maximum (in CCCCCCCCO): 590 nm
emission maximum (in CCCCCO): 586 nm
emission maximum (in CCCCO): 581 nm
emission maximum (in CCCO): 586 nm
emission maximum (in CCO): 589 nm
emission maximum (in CCOC(C)=O): 587 nm
emission maximum (in CN(C)C=O): 602 nm
emission maximum (in CO): 577 nm
emission maximum (in CS(C)=O): 613 nm
emission maximum (in Cc1ccccc1): 562 nm
emission maximum (in ClC(Cl)Cl): 591 nm

Compound: CN(C)CCN(Cc1c2ccccc2cc2ccccc12)c1ccc([N+](=O)[O-])cc1[N+](=O)[O-]
emission maximum (in C1CCCCC1): 391 nm
emission maximum (in C1CCOC1): 394 nm
emission maximum (in CC#N): 394 nm
emission maximum (in CC(C)=O): 393 nm
emission maximum (in CCO): 394 nm
emission maximum (in CN(C)C=O): 396 nm
emission maximum (in CO): 392 nm
emission maximum (in CS(C)=O): 398 nm
emission maximum (in ClC(Cl)Cl): 394 nm
emission maximum (in ClCCl): 393 nm

Compound: COC(=O)c1[nH]c(-c2ccc([N+](=O)[O-])cc2)c2nnc3ccc(OC)cc3c12
emission maximum (in ClCCl): 549 nm

Compound: CCc1c(C)c2n(c1C)[B-](F)(F)[N+]1=C(NCc3ccc(OC)cc3)C(SC#N)=CC1=C2C
emission maximum (in CC#N): 582 nm
emission maximum (in CCCCCC): 589 nm
emission maximum (in CCOC(C)=O): 586 nm
emission maximum (in CO): 583 nm
emission maximum (in ClCCl): 586 nm

Compound: CNc1cc2nc3cc(F)c(F)cc3nc2cc1NC
emission maximum (in CCO): 529 nm

Compound: COc1ccc(-c2cc3c(ccc4sc5ccc6sc(-c7ccc(C#N)cc7)cc6c5c43)s2)cc1
emission maximum (in ClCCl): 469 nm

Compound: Cc1ccc(CN(Cc2ccc(C)cc2)c2nc(C#N)c(N(Cc3ccc(C)cc3)Cc3ccc(C)cc3)nc2C#N)cc1
emission maximum (in ClC(Cl)Cl): 592 nm

Compound: C#CCN1C(=O)/C(=C/c2cc(OC(C)C)ccc2OC(C)C)N=C1C
emission maximum (in C1COCCO1): 476 nm
emission maximum (in CC#N): 508 nm
emission maximum (in CC(C)=O): 487 nm
emission maximum (in CCCCCC): 440 nm
emission maximum (in CCCCO): 516 nm
emission maximum (in CCCO): 521 nm
emission maximum (in CCO): 523 nm
emission maximum (in CCOC(C)=O): 475 nm
emission maximum (in CN(C)C=O): 500 nm
emission maximum (in CO): 538 nm
emission maximum (in CS(C)=O): 510 nm

Compound: Cc1cc(C)c(C)c(B(c2c(C)c(C)cc(C)c2C)c2c(C)c(C)c(N3c4ccccc4Oc4ccccc43)c(C)c2C)c1C
emission maximum (in CC(C)(C)c1ccc(-n2c3ccc([Si](c4ccccc4)(c4ccccc4)c4ccccc4)cc3c3cc([Si](c4ccccc4)(c4ccccc4)c4ccccc4)ccc32)cc1): 478 nm

Compound: c1cc2c([nH]c3c4[nH]c5sccc5c4c4nsnc4c23)s1
emission maximum (in C1CCOC1): 511 nm
emission maximum (in CCOC(C)=O): 510 nm
emission maximum (in CN(C)C=O): 547 nm
emission maximum (in Cc1ccccc1): 496 nm
emission maximum (in ClCCl): 533 nm
